From patent US11021493B2, “1,4-thiazine dioxide and 1,2,4-thiadiazine dioxide derivatives as beta-secretase inhibitors and methods of use” (AMGEN INC., priority 2016, dated 2021)
Structures can show the parent of a compound that is named as a salt.

Tests used:
BACE1 [1] = biological target: T1, BACE1 (Homo sapiens (Human), UniProt P56817); assay: In vitro enzymatic BACE1 FRET assay; assay type: biochemical; settings: read-out: BACE1 Enzyme IC50
Target sequence in this assay (P56817 46-501): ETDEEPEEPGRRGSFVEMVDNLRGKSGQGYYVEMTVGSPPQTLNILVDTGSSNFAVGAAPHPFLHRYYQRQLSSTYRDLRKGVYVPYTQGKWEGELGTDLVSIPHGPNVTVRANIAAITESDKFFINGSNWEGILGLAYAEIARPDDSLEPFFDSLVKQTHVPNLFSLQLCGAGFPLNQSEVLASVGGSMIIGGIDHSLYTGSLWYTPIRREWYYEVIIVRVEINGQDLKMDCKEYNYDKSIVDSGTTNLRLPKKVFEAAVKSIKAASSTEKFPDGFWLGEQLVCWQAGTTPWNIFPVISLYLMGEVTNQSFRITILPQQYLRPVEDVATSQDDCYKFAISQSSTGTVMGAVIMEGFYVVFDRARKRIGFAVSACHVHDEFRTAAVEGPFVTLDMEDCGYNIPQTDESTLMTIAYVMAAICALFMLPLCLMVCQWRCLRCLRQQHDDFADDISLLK

BACE1 [2] = biological target: T1, BACE1; assay: In vitro BACE1 cell-based assay (Aβ40 in conditioned medium of cells stably expressing APP, HTRF)
Target sequence in this assay (P56817 46-501, species assumed): as the sequence (P56817 46-501) above

human recombinant BACE2 = human recombinant BACE2 (Homo sapiens (Human), UniProt Q9Y5Z0); assay: In vitro enzymatic BACE2 FRET assay; assay type: biochemical; settings: read-out: BACE2 Enzyme IC50
Cathepsin D (CatD) = Cathepsin D (CatD) (Homo sapiens (Human), UniProt P07339); assay: In vitro enzymatic Cathepsin D (CatD) FRET assay; assay type: biochemical; settings: read-out: Cat D Enzyme IC50
[3] = Aβ40 in conditioned media after 24 h incubation

Sequence of Cathepsin D (CatD) (P07339 65-412, species assumed): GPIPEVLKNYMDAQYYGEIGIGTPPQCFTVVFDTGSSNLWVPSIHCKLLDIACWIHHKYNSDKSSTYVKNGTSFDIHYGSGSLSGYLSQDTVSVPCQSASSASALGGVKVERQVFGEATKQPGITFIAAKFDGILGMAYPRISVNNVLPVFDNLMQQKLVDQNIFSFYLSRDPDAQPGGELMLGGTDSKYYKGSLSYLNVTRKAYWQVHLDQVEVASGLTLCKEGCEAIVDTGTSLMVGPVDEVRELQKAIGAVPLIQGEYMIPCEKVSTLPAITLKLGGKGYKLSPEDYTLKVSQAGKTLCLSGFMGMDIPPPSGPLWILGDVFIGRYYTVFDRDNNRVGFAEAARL
Sequence of human recombinant BACE2 (Q9Y5Z0 63-518): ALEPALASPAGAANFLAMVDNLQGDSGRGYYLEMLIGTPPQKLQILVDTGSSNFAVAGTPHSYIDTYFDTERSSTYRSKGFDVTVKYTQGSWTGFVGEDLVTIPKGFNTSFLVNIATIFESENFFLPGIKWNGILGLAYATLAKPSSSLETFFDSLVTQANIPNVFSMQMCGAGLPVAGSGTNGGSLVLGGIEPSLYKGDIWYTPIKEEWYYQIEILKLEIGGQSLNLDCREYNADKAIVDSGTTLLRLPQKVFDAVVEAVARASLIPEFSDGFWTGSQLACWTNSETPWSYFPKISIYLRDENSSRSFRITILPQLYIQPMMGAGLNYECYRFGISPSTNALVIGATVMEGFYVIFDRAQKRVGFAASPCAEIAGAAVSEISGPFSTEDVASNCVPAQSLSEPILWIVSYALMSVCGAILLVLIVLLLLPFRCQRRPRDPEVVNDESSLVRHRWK

IC50 (human recombinant BACE2) [nM]	IC50 (Cathepsin D (CatD)) [nM]	IC50 (BACE1 [2]; [3]) [nM]	Structure (SMILES)	IC50 (BACE1 [1]) [nM]	IC50 (BACE1 [2]) [nM]
1820	> 400000	–	CN1C(N)=N[C@](C)(c2cc(/C=C(\F)c3cnc(OCc4nccn4C)cn3)cc(F)c2F)CS1(=O)=O [Example 249, (R,Z)-3-amino-5-(2,3-difluoro-5-(2-fluoro-2-(5-((1-methyl-1H-imidazol-2-yl)methoxy)pyrazin-2-yl)vinyl)phenyl)-2,5-dimethyl-5,6-dihydro-2H-1,2,4-thiadiazine 1,1-dioxide]	–	–
621	51700	–	Cc1nnc(COc2cnc(/C(F)=C/c3cc(F)c(F)c([C@]4(C)CS(=O)(=O)N(C)C(N)=N4)c3)cn2)o1 [Example 233, (R,Z)-3-amino-5-(2,3-difluoro-5-(2-fluoro-2-(5-((5-methyl-1,3,4-oxadiazol-2-yl)methoxy)pyrazin-2-yl)vinyl)phenyl)-2,5-dimethyl-5,6-dihydro-2H-1,2,4-thiadiazine 1,1-dioxide]	–	–
398	90300	–	CCOC(=O)COc1cnc(/C(F)=C/c2cc(F)c(F)c([C@]3(C)CS(=O)(=O)N(C)C(N)=N3)c2)cn1 [Example 243, (R,Z)-ethyl 2-((5-(2-(3-(3-amino-2,5-dimethyl-1,1-dioxido-5,6-dihydro-2H-1,2,4-thiadiazin-5-yl)-4,5-difluorophenyl)-1-fluorovinyl)pyrazin-2-yl)oxy)acetate]	–	–
103	25400	–	Cc1csc(COc2cnc(/C(F)=C/c3cc(F)c(F)c([C@]4(C)CS(=O)(=O)N(C)C(N)=N4)c3)cn2)n1 [Example 237, (R,Z)-3-amino-5-(2,3-difluoro-5-(2-fluoro-2-(5-((4-methylthiazol-2-yl)methoxy)pyrazin-2-yl)vinyl)phenyl)-2,5-dimethyl-5,6-dihydro-2H-1,2,4-thiadiazine 1,1-dioxide]	–	–
94	46800	–	Cc1nc(COc2cnc(/C(F)=C/c3cc(F)c(F)c([C@]4(C)CS(=O)(=O)N(C)C(N)=N4)c3)cn2)c(C)o1 [Example 238, (R,Z)-3-amino-5-(5-(2-(5-((2,5-dimethyloxazol-4-yl)methoxy)pyrazin-2-yl)-2-fluorovinyl)-2,3-difluorophenyl)-2,5-dimethyl-5,6-dihydro-2H-1,2,4-thiadiazine 1,1-dioxide]	–	–
111	34900	–	Cc1cnc(COc2cnc(/C(F)=C/c3cc(F)c(F)c([C@]4(C)CS(=O)(=O)N(C)C(N)=N4)c3)cn2)o1 [Example 246, (R,Z)-3-amino-5-(2,3-difluoro-5-(2-fluoro-2-(5-((5-methyloxazol-2-yl)methoxy)pyrazin-2-yl)vinyl)phenyl)-2,5-dimethyl-5,6-dihydro-2H-1,2,4-thiadiazine 1,1-dioxide]	–	–
84	69800	–	CN1C(N)=N[C@](C)(c2cc(/C=C(\F)c3cnc(OCc4cocn4)cn3)cc(F)c2F)CS1(=O)=O [Example 225, (R,Z)-3-amino-5-(2,3-difluoro-5-(2-fluoro-2-(5-(oxazol-4-ylmethoxy)pyrazin-2-yl)vinyl)phenyl)-2,5-dimethyl-5,6-dihydro-2H-1,2,4-thiadiazine 1,1-dioxide]	–	–
257	68200	–	Cc1nc(COc2cnc(/C(F)=C/c3cc(F)c(F)c([C@]4(C)CS(=O)(=O)N(C)C(N)=N4)c3)cn2)no1 [Example 229, (R,Z)-3-amino-5-(2,3-difluoro-5-(2-fluoro-2-(5-((5-methyl-1,2,4-oxadiazol-3-yl)methoxy)pyrazin-2-yl)vinyl)phenyl)-2,5-dimethyl-5,6-dihydro-2H-1,2,4-thiadiazine 1,1-dioxide]	–	–
266	39500	–	CN1C(N)=N[C@](C)(c2cc(/C=C(\F)c3cnc(OCc4ncccn4)cn3)cc(F)c2F)CS1(=O)=O [Example 228, (R,Z)-3-amino-5-(2,3-difluoro-5-(2-fluoro-2-(5-(pyrimidin-2-ylmethoxy)pyrazin-2-yl)vinyl)phenyl)-2,5-dimethyl-5,6-dihydro-2H-1,2,4-thiadiazine 1,1-dioxide]	–	–

Second part, the molecule before the results:

Structure (SMILES)	IC50 (human recombinant BACE2) [nM]	IC50 (Cathepsin D (CatD)) [nM]	IC50 (BACE1 [2]; [3]) [nM]	IC50 (BACE1 [1]) [nM]	IC50 (BACE1 [2]) [nM]
C#CCOc1cnc(/C(F)=C/c2ccc(F)c([C@]3(C)CS(=O)(=O)C(C)(C)C(N)=N3)c2)cn1 [Example 123, (R,Z)-5-amino-3-(2-fluoro-5-(2-fluoro-2-(5-(prop-2-yn-1-yloxy)pyrazin-2-yl)vinyl)phenyl)-3,6,6-trimethyl-3,6-dihydro-2H-1,4-thiazine 1,1-dioxide]	–	–	–	1	3
CN1C(N)=N[C@](C)(c2cc(/C=C(\F)c3cnc(OCc4cscn4)cn3)cc(F)c2F)CS1(=O)=O [Example 220, (R,Z)-3-amino-5-(2,3-difluoro-5-(2-fluoro-2-(5-(thiazol-4-ylmethoxy)pyrazin-2-yl)vinyl)phenyl)-2,5-dimethyl-5,6-dihydro-2H-1,2,4-thiadiazine 1,1-dioxide]	66	32200	–	–	–
CC#CCOc1cnc(/C(F)=C/c2cc(F)c(F)c([C@]3(C)CS(=O)(=O)N(C)C(N)=N3)c2)cn1 [Example 165, (R,Z)-3-amino-5-(5-(2-(5-(but-2-yn-1-yloxy)pyrazin-2-yl)-2-fluorovinyl)-2,3-difluorophenyl)-2,5-dimethyl-5,6-dihydro-2H-1,2,4-thiadiazine 1,1-dioxide]	47	18200	–	–	–
C=CCOc1cnc(/C(F)=C/c2cc(F)c(F)c([C@]3(C)CS(=O)(=O)N(C)C(N)=N3)c2)cn1 [Example 227, (R,Z)-5-(5-(2-(5-(allyloxy)pyrazin-2-yl)-2-fluorovinyl)-2,3-difluorophenyl)-3-amino-2,5-dimethyl-5,6-dihydro-2H-1,2,4-thiadiazine 1,1-dioxide]	–	–	–	46	427
CC1(C)C(N)=N[C@](C)(c2cc(/C=C(\F)c3cnc(Cl)cn3)ccc2F)CS1(=O)=O [Example 159, (R,Z)-5-amino-3-(5-(2-(5-chloropyrazin-2-yl)-2-fluorovinyl)-2-fluorophenyl)-3,6,6-trimethyl-3,6-dihydro-2H-1,4-thiazine 1,1-dioxide]	3	143000	–	–	–
CN1C(N)=N[C@](C)(c2cc(/C=C(\F)c3cc4nccnc4cn3)ccc2F)CS1(=O)=O [Example 250, (5R)-5-(2-fluoro-5-((Z)-2-fluoro-2-(pyrido[3,4-b]pyrazin-7-yl)ethenyl)phenyl)-2,5-dimethyl-5,6-dihydro-2H-1,2,4-thiadiazin-3-amine 1,1-dioxide]	–	> 400000	–	–	–
CC1(C)C(N)=N[C@](C)(c2cc(/C=C(\F)c3cnc(OCC4CC4)cn3)ccc2F)CS1(=O)=O [Example 206, (R,Z)-5-amino-3-(5-(2-(5-(cyclopropylmethoxy)pyrazin-2-yl)-2-fluorovinyl)-2-fluorophenyl)-3,6,6-trimethyl-3,6-dihydro-2H-1,4-thiazine 1,1-dioxide]	139	74700	–	–	–
CC#CCOc1cnc(/C(F)=C/c2ccc(F)c([C@]3(C)CS(=O)(=O)N(C)C(N)=N3)c2)cn1 [Example 168, (R,Z)-3-amino-5-(5-(2-(5-(but-2-yn-1-yloxy)pyrazin-2-yl)-2-fluorovinyl)-2-fluorophenyl)-2,5-dimethyl-5,6-dihydro-2H-1,2,4-thiadiazine 1,1-dioxide]	10	25400	–	–	–
Cc1noc(COc2cnc(/C(F)=C/c3cc(F)c(F)c([C@]4(C)CS(=O)(=O)N(C)C(N)=N4)c3)cn2)n1 [Example 224, (R,Z)-3-amino-5-(2,3-difluoro-5-(2-fluoro-2-(5-((3-methyl-1,2,4-oxadiazol-5-yl)methoxy)pyrazin-2-yl)vinyl)phenyl)-2,5-dimethyl-5,6-dihydro-2H-1,2,4-thiadiazine 1,1-dioxide]	421	74800	–	–	–
Cc1cc(COc2cnc(/C(F)=C/c3cc(F)c(F)c([C@]4(C)CS(=O)(=O)N(C)C(N)=N4)c3)cn2)no1 [Example 223, (R,Z)-3-amino-5-(2,3-difluoro-5-(2-fluoro-2-(5-((5-methylisoxazol-3-yl)methoxy)pyrazin-2-yl)vinyl)phenyl)-2,5-dimethyl-5,6-dihydro-2H-1,2,4-thiadiazine 1,1-dioxide]	210	22300	–	–	–
CN1C(N)=N[C@](C)(c2cc(/C=C(\F)c3cnc(C#N)cn3)ccc2F)C(C)(C)S1(=O)=O [Example 181, (R,Z)-5-(2-(3-(3-amino-2,5,6,6-tetramethyl-1,1-dioxido-5,6-dihydro-2H-1,2,4-thiadiazin-5-yl)-4-fluorophenyl)-1-fluorovinyl)pyrazine-2-carbonitrile]	87	178000	–	–	–
CN1C(N)=N[C@](C)(c2cc(/C=C(\F)c3cnc(OCC4CCC4)cn3)ccc2F)CS1(=O)=O [Example 174, (R,Z)-3-amino-5-(5-(2-(5-(cyclobutylmethoxy)pyrazin-2-yl)-2-fluorovinyl)-2-fluorophenyl)-2,5-dimethyl-5,6-dihydro-2H-1,2,4-thiadiazine 1,1-dioxide]	113	22000	1400	–	–
CC1(C)C(N)=N[C@](C)(c2cc(/C=C(\F)c3cnc(O)cn3)ccc2F)CS1(=O)=O [Example 140, (R,Z)-5-amino-3-(2-fluoro-5-(2-fluoro-2-(5-hydroxypyrazin-2-yl)vinyl)phenyl)-3,6,6-trimethyl-3,6-dihydro-2H-1,4-thiazine 1,1-dioxide]	203	177000	241	–	–
C#C[C@H](C)Oc1cnc(/C(F)=C/c2cc(F)c(F)c([C@]3(C)CS(=O)(=O)N(C)C(N)=N3)c2)cn1 [Example 167, (R)-3-amino-5-(5-((Z)-2-(5-((S)-but-3-yn-2-yloxy)pyrazin-2-yl)-2-fluorovinyl)-2,3-difluorophenyl)-2,5-dimethyl-5,6-dihydro-2H-1,2,4-thiadiazine 1,1-dioxide hydrochloride]	290	32500	11	–	–
C#CCOc1cnc(/C(F)=C/c2ccc(F)c([C@@]3(C)N=C(N)N(C)S(=O)(=O)C3(C)C)c2)cn1 [Example 183, (R,Z)-3-amino-5-(2-fluoro-5-(2-fluoro-2-(5-(prop-2-yn-1-yloxy)pyrazin-2-yl)vinyl)phenyl)-2,5,6,6-tetramethyl-5,6-dihydro-2H-1,2,4-thiadiazine 1,1-dioxide]	–	–	75	13	–
